Experimental data reported in patent US8178543B2, “Bi- and tricyclic fused pyrimidines as tyrosine kinase inhibitors” (Takeda Pharmaceutical Company Limited, priority 2004, dated 2012).

Target: T1, HER2 intracellular domain (Homo sapiens, UniProt P04626)
T1 construct: made in house; host or cells: SF-21 insect cells, recombinant baculovirus BAC-HER2
Assay: Determination of HER2 kinase inhibitory activity
Format: biochemical
Details: 1.0 μM test compound; poly-Glu:Tyr (4:1) substrate, [γ-32P]ATP, 25° C., 10 min; read-out: HER2 kinase Inhibitory rate (%) at 1.0 μM
Method: (§1) Human HER2 gene was cloned by RT-PCR using total RNA prepared from MCF7 cells as a template. The primer used for RT-PCR was prepared from nucleotide sequence (Genbank Accession M11730) information of HER2 gene by adding a nucleotide sequence encoding flag peptide and a restriction enzyme recognition sequence to a nucleotide sequence (2176-3918 of Genbank Accession M11730) encoding the HER2 intracellular domain region, so that the protein contains an N-terminal Flag tag. The primer nucleotide sequence is shown below.
The RT reaction was conducted using SuperScript First-Strand Synthesis System for RT-PCR (Invitrogen) and the PCR reaction was conducted using a KOD-plus kit (TOYOBO). The obtained PCR product was electrophoresed on agarose gel (1%), the DNA fragment amplified by PCR was recovered from the gel, and then digested with restriction enzymes Sal I and Sph I. The DNA treated with the restriction enzymes was electrophoresed on agarose gel (1%), and the obtained DNA fragment was recovered and ligated to plasmid pFASTBAC1 (Invitrogen) digested with restriction enzymes Sal I and Sph I to give expression plasmid pFB-HER2. The nucleotide sequence of the insertion fragment was confirmed and found to be identical with the nucleotide sequence (2176-3918 of Genbank Accession M11730) of HER2 intracellular domain. Furthermore, using BAC-TO-BAC Baculovirus Expression System (Invitrogen), recombinant baculovirus BAC-HER2 was prepared.
SF-21 cells were sown at 1×10^6 cells/mL to Sf-900II SFM medium (1 L, Invitrogen) containing 10% fetal bovine serum (trace), 50 mg/L gentamicin (Invitrogen) and 0.1% Pluronic F-68 (Invitrogen), and shaking culture was performed using a 2 L volume Erlenmeyer flask at 27° C., 100 rpm. After culturing for 24 hrs, recombinant baculovirus BAC-HER2 (13.4 mL) was added, and the mixture was further cultured for 3 days. The culture medium was centrifuged at 2,000 rpm for 5 min. to give virus-infected cells. The infected cells were washed with a phosphate buffered saline (Invitrogen), centrifuged under the same conditions, and the cells were preserved at −80° C. The cryopreserved cells were thawed in ice, suspended in buffer A (50 mM Tris buffer (30 mL, pH 7.4) containing 20% glycerol, 0.15 M NaCl) supplemented with Complete Protease Inhibitor (Boehringer), and ruptured 3 times with a Polytron homogenizer (Kinematica) at 20,000 rpm for 30 sec. The rupture medium was clarified by centrifugation at 40,000 rpm for 30 min. and filtered with a 0.45 μm filter. The filtrate was passed through a column packed with Anti-FLAG M2 Affinity Gel (4 mL, Sigma) at a flow rate of about 0.5 mL/min. The column was washed with buffer A, and eluted with buffer A containing 100 μg/mL of FLAG peptide. The eluate was concentrated with Vivaspin 20 (Vivascience) having a molecular weight cut off of 30K. The concentrate was purified by gel filtration using Hi Load Superdex 200 pg 16/60 (Amersham Bioscience) equilibrated with buffer A. The fractions containing HER2 intracellular domain were collected, glycerol was added to the final concentration of 50% and cryopreserved at −80° C.
A test compound dissolved in dimethyl sulfoxide (DMSO) was diluted with a buffer for kinase reaction (50 mM Tris-HCl (pH7.5), 5 mM MgCl2, 5 mM MnCl2, 2 mM dithiothreitol, 0.01% Tween-20). To this compound solution (10 μL) was added a buffer for kinase reaction (20 μL) containing 5 μg/mL of HER2 intracellular domain obtained in Experimental Example 1B and 12.5 μg/mL of polypeptide substrate poly-Glu:Tyr (4:1) (Sigma). To the obtained mixture was added 20 μL of ATP solution (1.25 μM ATP, 0.05 μCi [γ-^32P]ATP), the mixture was allowed to react at 25° C. for 10 min. and the reaction was quenched with 50 μL of 20% TCA solution. The reaction solution was allowed to stand at 4° C. for 20 min., and the acid insoluble fraction was transferred to GF/C filter (PerkinElmer) using cell harvester (PerkinElmer) and washed with 250 mM phosphoric acid solution. […]

T1 sequence (P04626 676-1255 limits assumed): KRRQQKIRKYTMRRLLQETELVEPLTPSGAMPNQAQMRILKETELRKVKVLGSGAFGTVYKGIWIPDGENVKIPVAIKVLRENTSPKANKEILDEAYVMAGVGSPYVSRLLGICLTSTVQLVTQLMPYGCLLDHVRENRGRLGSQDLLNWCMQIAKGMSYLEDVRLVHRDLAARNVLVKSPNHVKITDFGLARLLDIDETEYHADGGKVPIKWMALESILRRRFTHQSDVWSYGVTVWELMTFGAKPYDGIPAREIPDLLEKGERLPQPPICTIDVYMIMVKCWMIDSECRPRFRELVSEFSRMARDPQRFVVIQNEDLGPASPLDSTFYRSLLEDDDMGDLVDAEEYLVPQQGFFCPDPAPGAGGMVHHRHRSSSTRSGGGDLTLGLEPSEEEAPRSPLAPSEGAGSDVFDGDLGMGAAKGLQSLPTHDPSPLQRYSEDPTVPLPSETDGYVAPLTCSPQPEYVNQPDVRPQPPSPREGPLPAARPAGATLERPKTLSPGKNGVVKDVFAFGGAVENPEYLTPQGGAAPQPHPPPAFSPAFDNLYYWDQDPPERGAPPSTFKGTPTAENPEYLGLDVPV

Structure (SMILES) | inhibition at 1 µM [%]
CCOCCn1ccc2ncnc(Nc3ccc(OCc4cccc(F)c4)c(Cl)c3)c21 [Example 38, N-{3-chloro-4-[(3-fluorobenzyl)oxy]phenyl}-5-(2-ethoxyethyl)-5H-pyrrolo[3,2-d]pyrimidin-4-amine] | 95.9
Cc1cc(Nc2ncnc3ccn(CCNC(=O)CS(C)(=O)=O)c23)ccc1Oc1cccc(OC(F)(F)F)c1 [Example 190, 2-(methylsulfonyl)-N-{2-[4-({3-methyl-4-[3-(trifluoromethoxy)phenoxy]phenyl}amino)-5H-pyrrolo[3,2-d]pyrimidin-5-yl]ethyl}acetamide] | 95.9
Cc1ccc(Oc2ccc(Nc3ncnc4cc(/C=C/CO)[nH]c34)cc2C)cn1 [Example 13, (2E)-3-[4-({3-methyl-4-[(6-methylpyridin-3-yl)oxy]phenyl}amino)-5H-pyrrolo[3,2-d]pyrimidin-6-yl]-2-propen-1-ol] | 94.9
CS(=O)(=O)CC(=O)NCCn1ccc2ncnc(Nc3ccc(Oc4cccc(Cl)c4)c(Cl)c3)c21 [Example 191, N-[2-(4-{[3-chloro-4-(3-chlorophenoxy)phenyl]amino}-5H-pyrrolo[3,2-d]pyrimidin-5-yl)ethyl]-2-(methylsulfonyl)acetamide] | 100
Cn1ccc2ncnc(Nc3ccc(OCc4cccc(F)c4)c(Cl)c3)c21 [Example 39, N-{3-chloro-4-[(3-fluorobenzyl)oxy]phenyl}-5-methyl-5H-pyrrolo[3,2-d]pyrimidin-4-amine] | 96.1
CC(C)(O)CC(=O)NCCn1ccc2ncnc(Nc3ccc(Oc4cccc(C(F)(F)F)c4)c(Cl)c3)c21 [Example 158, N-{2-[4-({3-chloro-4-[3-(trifluoromethyl)phenoxy]phenyl}amino)-5H-pyrrolo[3,2-d]pyrimidin-5-yl]ethyl}-3-hydroxy-3-methylbutanamide] | 87

Target: T2, EGF receptor intracellular domain protein (Homo sapiens, UniProt P00533)
T2 construct: encoding EGF receptor intracellular domain region, so that the protein contains an N-terminal Flag tag; made in house; host or cells: SF-21 insect cells, recombinant baculovirus BAC-EGFR
T2 sequence (P00533 669-1210 limits assumed): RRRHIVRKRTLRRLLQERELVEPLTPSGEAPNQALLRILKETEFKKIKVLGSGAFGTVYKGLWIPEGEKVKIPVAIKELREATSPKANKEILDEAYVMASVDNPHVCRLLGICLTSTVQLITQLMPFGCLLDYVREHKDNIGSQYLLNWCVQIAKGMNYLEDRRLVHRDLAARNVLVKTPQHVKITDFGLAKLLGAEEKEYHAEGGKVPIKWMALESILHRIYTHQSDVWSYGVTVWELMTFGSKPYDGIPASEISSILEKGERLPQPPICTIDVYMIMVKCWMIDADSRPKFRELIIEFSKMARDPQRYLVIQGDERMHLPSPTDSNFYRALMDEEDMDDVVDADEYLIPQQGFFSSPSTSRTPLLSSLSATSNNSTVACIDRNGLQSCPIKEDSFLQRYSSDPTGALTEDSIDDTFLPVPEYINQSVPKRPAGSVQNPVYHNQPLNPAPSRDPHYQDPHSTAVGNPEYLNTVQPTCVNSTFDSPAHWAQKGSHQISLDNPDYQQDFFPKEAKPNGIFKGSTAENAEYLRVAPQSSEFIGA
Assay: Determination of EGF receptor kinase inhibitory activity
Format: biochemical
Details: 1.0 μM test compound; biotinyl-poly-Glu:Tyr (4:1), AlphaScreen, 25° C., 10 min; read-out: EGF receptor kinase Inhibitory rate (%) at 1.0 μM
Method: as §1, with “EGF receptor” for “HER2”, “A431” for “MCF7”, “primer” for “primer used”, “XM—167493)” for “M11730)”, “(2182-3810” for “(2176-3918”, “EGF receptor” for “the HER2”
The RT reaction was conducted using SuperScript First-Strand Synthesis System for RT-PCR (Invitrogen) and the PCR reaction was conducted using a KOD-plus kit (TOYOBO). The obtained PCR product was electrophoresed on agarose gel (1%), the DNA fragment amplified by PCR was recovered from the gel, and then digested with restriction enzymes Sal I and Sph I. The DNA treated with the restriction enzymes was electrophoresed on agarose gel (1%), and the obtained DNA fragment was recovered and ligated to plasmid pFASTBAC1 (Invitrogen) digested with restriction enzymes Sal I and Sph I to give expression plasmid pFB-EGFR. The nucleotide sequence of insertion fragment was confirmed and found to be identical with the nucleotide sequence (2182-3810 of Genbank Accession XM—167493) of EGFR intracellular domain. Furthermore, using BAC-TO-BAC Baculovirus Expression System (Invitrogen), virus stock BAC-EGFR of recombinant baculovirus was prepared.
SF-21 cells were sown at 1×10^6 cells/mL to Sf-900II SFM medium (1 L, Invitrogen) containing 10% fetal bovine serum (trace), 50 mg/L gentamicin (Invitrogen) and 0.1% Pluronic F-68 (Invitrogen), and shaking culture was performed using a 2 L volume Erlenmeyer flask at 27° C., 100 rpm. After culturing for 24 hrs, recombinant baculovirus BAC-EGFR (13.4 mL) was added, and the mixture was further cultured for 3 days. The culture medium was centrifuged at 2,000 rpm for 5 min. to give virus-infected cells. The infected cells were washed with a phosphate buffered saline (Invitrogen), centrifuged under the same conditions, and the cells were preserved at −80° C. The cryopreserved cells were thawed in ice, suspended in buffer A (50 mM Tris buffer (30 mL, pH7.4) containing 20% glycerol, 0.15 M NaCl) supplemented with Complete Protease Inhibitor (Boehringer), and ruptured 3 times with a Polytron homogenizer (Kinematica) at 20,000 rpm for 30 sec. The ruptured medium was clarified by centrifugation at 40,000 rpm for 30 min. and filtered with a 0.45 μm filter. The filtrate was passed through a column packed with Anti-FLAG M2 Affinity Gel (4 mL, Sigma) at a flow rate of about 0.5 mL/min. The column was washed with buffer A, and eluted with buffer A containing 100 μg/mL of FLAG peptide. The eluate was concentrated with Vivaspin 20 (Vivascience) having a molecular weight cut off of 30K. The buffer of this concentrate was exchanged using NAPE 25 column (Amersham Bioscience) equilibrated with buffer A. The fractions containing EGF receptor intracellular domain protein were collected, glycerol was added to the final concentration of 50% and cryopreserved at −80° C.
A test compound dissolved in dimethyl sulfoxide (DMSO) was diluted with a buffer (50 mM Tris-HCl (pH 7.5), 5 mM MgCl2, 5 mM MnCl2, 2 mM dithiothreitol, 0.01% Tween-20). To this compound solution (5 μL) was added a buffer (10 μL) containing 250 ng/mL of EGF receptor intracellular domain protein and 250 ng/mL of biotin labeled polypeptide biotinyl-poly-Glu:Tyr (4:1) (CIS bio International). […]

Structure (SMILES) | inhibition at 1 µM [%]
OCCOCCn1ccc2ncnc(Nc3ccc(Oc4cccc(C(F)(F)F)c4)c(Cl)c3)c21 [Example 147, 2-{2-[4-({3-Chloro-4-[3-(trifluoromethyl)phenoxy]phenyl}amino)-5H-pyrrolo[3,2-d]pyrimidin-5-yl]ethoxy}ethanol] | 96
OCCn1ccc2ncnc(Nc3ccc(OCc4cccc(F)c4)c(Cl)c3)c21 [Example 41, 2-[4-({3-chloro-4-[(3-fluorobenzyl)oxy]phenyl}amino)-5H-pyrrolo[3,2-d]pyrimidin-5-yl]ethanol] | 98.9
OCCOCCn1ccc2ncnc(Nc3ccc(OCc4cccc(F)c4)c(Cl)c3)c21 [Example 138, 2-{2-[4-({3-chloro-4-[(3-fluorobenzyl)oxy]phenyl}amino)-5H-pyrrolo[3,2-d]pyrimidin-5-yl]ethoxy}ethanol] | 99
Cn1c(/C=C/CO)cc2ncnc(Nc3ccc(OCc4cccc(F)c4)c(Cl)c3)c21 [Example 22, (2E)-3-[4-({3-chloro-4-[(3-fluorobenzyl)oxy]phenyl}amino)-5-methyl-5H-pyrrolo[3,2-d]pyrimidin-6-yl]-2-propen-1-ol] | 98.5
CS(=O)(=O)CC(=O)NCCn1ccc2ncnc(Nc3ccc(Oc4cccc(C(F)(F)F)c4)c(Cl)c3)c21 [Example 160, N-{2-[4-({3-chloro-4-[3-(trifluoromethyl)phenoxy]phenyl}amino)-5H-pyrrolo[3,2-d]pyrimidin-5-yl]ethyl}-2-(methylsulfonyl)acetamide] | 97

System: human breast cancer cell BT-474
Assay: Inhibitory action on breast cancer cell BT-474 proliferation in vitro
Format: cell-based
Details: 120 h, BT-474 cells, cultured 5 days, SRB staining
Method: A suspension of human breast cancer cell BT-474 (100 μl (6,000 cells)) were sown to a 96-well microplate and cultured in an incubator (37° C., 5% carbon dioxide). On the following day, 100 μl of a solution of each test compound, which was previously diluted 2-fold, was added, and the cells were cultured for 5 days. After the culture medium containing the test compound was removed, the cells were washed and fixed with 50% trichloroacetic acid, after which a 0.4% (w/v) SRB solution (dissolved in 1% acetic acid) was added to fix and stain the cell protein (Skehan et al., Journal of the National Cancer Institute, Vol. 82, pp. 1107-1112, 1990). After washing with a 1% acetic acid solution, 100 μl of an extract (10 mM Tris solution) was added to extract the pigment, and absorbance was measured at an absorption wavelength of 550 nm to quantify the amount of cells as protein content. Taking as 100% the protein content for the control group, which received no test compound solution, the ratio of the residual protein content for each treatment group was determined, and the compound concentration required to achieve 50% suppression of the residual cell content relative to the control (IC50 value) was calculated.

Structure (SMILES) | IC50 [nM]
CN(C)C/C=C/C(=O)NCc1cc2ncnc(Nc3ccc(OCc4cccc(F)c4)c(Cl)c3)c2[nH]1 [Example 82, (2E)-N-{[4-({3-chloro-4-[(3-fluorobenzyl)oxy]phenyl}amino)-5H-pyrrolo[3,2-d]pyrimidin-6-yl]methyl}-4-(dimethylamino)but-2-enamide] | < 100
